Laboratory results from PubChem BioAssay AID2060485 (Molecular Pharmacology Branch, DTP, NCI, 2025).

Test system: A375 multi-cell spheroids with HUVEC/MSC, viability
Experiment: Anticancer human tumor A375 cell line growth inhibition [GQUAD];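 note: spheroids exposed to compounds for seven days before readout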
Conditions: for IC50: curve of first compound; for viability, T/C: stronger effect = lower value; active = viability on the fitted dose curve at most 10% of control; inactive = the rest
Summary of the method: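 Viability of tumor cells grown as complex spheroids with endothelial and stromal cells, exposed to drug combinations. Top concentration at or near clinical Cmax (else 10 microM), diluted in half-log increments.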

[1] = second compound 0.0316 µM, first compound 0.0316 µM
[2] = second compound 0.0316 µM, first compound 0.1 µM
[3] = second compound 0.0316 µM, first compound 0.316 µM
[4] = second compound 0.0316 µM, first compound 1 µM
[5] = second compound 0.0316 µM, first compound 3.16 µM
[6] = second compound 0.0316 µM, first compound 10 µM
[7] = second compound 0.1 µM, first compound 0.0316 µM
[8] = second compound 0.1 µM, first compound 0.1 µM
[9] = second compound 0.1 µM, first compound 0.316 µM
[10] = second compound 0.1 µM, first compound 1 µM
[11] = second compound 0.1 µM, first compound 3.16 µM
[12] = second compound 0.1 µM, first compound 10 µM
[13] = second compound 0.316 µM, first compound 0.0316 µM
[14] = second compound 0.316 µM, first compound 0.1 µM
[15] = second compound 0.316 µM, first compound 0.316 µM
[16] = second compound 0.316 µM, first compound 1 µM
[17] = second compound 0.316 µM, first compound 3.16 µM
[18] = second compound 0.316 µM, first compound 10 µM
[19] = second compound 1 µM, first compound 0.0316 µM
[20] = second compound 1 µM, first compound 0.1 µM
[21] = second compound 1 µM, first compound 0.316 µM
[22] = second compound 1 µM, first compound 1 µM
[23] = second compound 1 µM, first compound 3.16 µM
[24] = second compound 1 µM, first compound 10 µM
[25] = second compound 3.16 µM, first compound 0.0316 µM
[26] = second compound 3.16 µM, first compound 0.1 µM
[27] = second compound 3.16 µM, first compound 0.316 µM
[28] = second compound 3.16 µM, first compound 1 µM
[29] = second compound 3.16 µM, first compound 3.16 µM
[30] = second compound 3.16 µM, first compound 10 µM
[31] = second compound 10 µM, first compound 0.0316 µM
[32] = second compound 10 µM, first compound 0.1 µM
[33] = second compound 10 µM, first compound 0.316 µM
[34] = second compound 10 µM, first compound 1 µM
[35] = second compound 10 µM, first compound 3.16 µM
[36] = second compound 10 µM, first compound 10 µM

CC(C)n1c(=O)n(C)c2cnc3cc(F)c(-c4ccc(OCCCN5CCCCC5)nc4)cc3c21 + CN(C)c1ccc(Nc2c3ccc(NC(=O)CCN4CCCC4)cc3nc3cc(NC(=O)CCN4CCCC4)ccc23)cc1
inactive: viability, T/C [1] 109% | viability, T/C [2] 99.5% | viability, T/C [3] 105% | viability, T/C [4] 106% | viability, T/C [5] 114% | viability, T/C [6] 88.3% | viability, T/C [7] 108% | viability, T/C [8] 106% | viability, T/C [9] 97.9% | viability, T/C [10] 98.5% | viability, T/C [11] 115% | viability, T/C [12] 91.2% | viability, T/C [13] 103% | viability, T/C [14] 97.1% | viability, T/C [15] 103% | viability, T/C [16] 109% | viability, T/C [17] 116% | viability, T/C [18] 78.3% | viability, T/C [19] 103% | viability, T/C [20] 102% | viability, T/C [21] 108% | viability, T/C [22] 108% | viability, T/C [23] 110% | viability, T/C [24] 78% | viability, T/C [25] 97.4% | viability, T/C [26] 98.1% | viability, T/C [27] 104% | viability, T/C [28] 103% | viability, T/C [29] 107% | viability, T/C [30] 59.6% | viability, T/C [31] 102% | viability, T/C [32] 96.4% | viability, T/C [33] 94.2% | viability, T/C [34] 89.4% | viability, T/C [35] 61% | viability, T/C [36] 30.5%
4.83 µM: IC50 (second compound 10 µM)
> 10 µM: IC50 (second compound 0.0316 µM) | IC50 (second compound 0.1 µM) | IC50 (second compound 0.316 µM) | IC50 (second compound 1 µM) | IC50 (second compound 3.16 µM)

CC1COCCN1c1cc(C2(O)CC3CCC(C2)O3)c2cnn(-c3ccn[nH]3)c2n1 (stereo unspecified) + CN(C)c1ccc(Nc2c3ccc(NC(=O)CCN4CCCC4)cc3nc3cc(NC(=O)CCN4CCCC4)ccc23)cc1
0.204 µM: IC50 (second compound 10 µM)
active: viability, T/C [5] 11.3% | viability, T/C [6] 6.63% | viability, T/C [11] 8.49% | viability, T/C [12] 6.23% | viability, T/C [17] 10.9% | viability, T/C [18] 7.23% | viability, T/C [24] 7.1% | viability, T/C [30] 7.14% | viability, T/C [35] 11.5% | viability, T/C [36] 6.9%
0.199 µM: IC50 (second compound 0.0316 µM)
0.226 µM: IC50 (second compound 3.16 µM)
0.203 µM: IC50 (second compound 1 µM)
0.21 µM: IC50 (second compound 0.316 µM)
inactive: viability, T/C [1] 94.4% | viability, T/C [2] 70.8% | viability, T/C [3] 36.1% | viability, T/C [4] 15.5% | viability, T/C [7] 97.4% | viability, T/C [8] 70.4% | viability, T/C [9] 32.7% | viability, T/C [10] 15.7% | viability, T/C [13] 101% | viability, T/C [14] 70.7% | viability, T/C [15] 40.5% | viability, T/C [16] 13.9% | viability, T/C [19] 97.9% | viability, T/C [20] 72.4% | viability, T/C [21] 35.6% | viability, T/C [22] 16.3% | viability, T/C [23] 11.7% | viability, T/C [25] 97.2% | viability, T/C [26] 72.7% | viability, T/C [27] 41% | viability, T/C [28] 17.8% | viability, T/C [29] 11.1% | viability, T/C [31] 87.7% | viability, T/C [32] 67.8% | viability, T/C [33] 39.7% | viability, T/C [34] 16%
0.188 µM: IC50 (second compound 0.1 µM)

CC1COCCN1c1cc(C2(S(C)(=N)=O)CC2)nc(-c2ccnc3[nH]ccc23)n1 (stereo unspecified) + CN(C)c1ccc(Nc2c3ccc(NC(=O)CCN4CCCC4)cc3nc3cc(NC(=O)CCN4CCCC4)ccc23)cc1
7.3 µM: IC50 (second compound 1 µM)
inactive: viability, T/C [1] 102% | viability, T/C [2] 105% | viability, T/C [3] 102% | viability, T/C [4] 108% | viability, T/C [5] 68.5% | viability, T/C [6] 36% | viability, T/C [7] 108% | viability, T/C [8] 104% | viability, T/C [9] 106% | viability, T/C [10] 102% | viability, T/C [11] 67.8% | viability, T/C [12] 34.5% | viability, T/C [13] 105% | viability, T/C [14] 101% | viability, T/C [15] 107% | viability, T/C [16] 107% | viability, T/C [17] 71.9% | viability, T/C [18] 35% | viability, T/C [19] 106% | viability, T/C [20] 95.7% | viability, T/C [21] 114% | viability, T/C [22] 108% | viability, T/C [23] 68% | viability, T/C [24] 43.2% | viability, T/C [25] 118% | viability, T/C [26] 95.8% | viability, T/C [27] 97.2% | viability, T/C [28] 108% | viability, T/C [29] 78.3% | viability, T/C [30] 40.3% | viability, T/C [31] 95.5% | viability, T/C [32] 98.3% | viability, T/C [33] 101% | viability, T/C [34] 96.8% | viability, T/C [35] 64.8% | viability, T/C [36] 40.6%
6.09 µM: IC50 (second compound 0.0316 µM)
5.86 µM: IC50 (second compound 0.1 µM)
6.4 µM: IC50 (second compound 10 µM)
6.26 µM: IC50 (second compound 0.316 µM)
7.46 µM: IC50 (second compound 3.16 µM)
